According to patent publication US20260365646A1, “AKT1 MODULATORS” (Alterome Therapeutics, Inc., priority 2022, published 2026):

What follows are compounds tested against T1, full length AKT E17K (Homo sapiens, UniProt P31749, E17K) (assay: NanoBRET Target Engagement (TE) Intracellular Kinase Assay). Settings: not given.
T1 construct: host or cells: HEK-293 (ATCC CRL-1573)
Type: cell-based
Text: The NanoBRET™ Target Engagement (TE) Intracellular Kinase Assays are based on the NanoBRET™ System (Promega Corporation), an energy transfer technique designed to measure molecular proximity in living cells. The NanoBRET™ TE Assays measure the apparent affinity of test compounds by competitive displacement of the NanoBRET™ tracer compound, which is a cell permeable molecule engineered to be reversibly bound to a NanoLuc® luciferase-kinase fusion expressed in cells. For compound screening, when a test compound binds to the selected kinase, the BRET signal is attenuated. […] All cells were evaluated for viability prior to transfection and optimization of the transfection was done prior to experimentation. […] Following transfection, cells were washed and resuspended in Opti-MEM. NanoBRET assays were performed in white, 384-well plates (Corning) at a density of 2×10^5 cells/well. All example compounds were prepared as concentrated stock solutions in DMSO (Sigma-Aldrich). Compounds are dissolved in DMSO to make 10 mM stock solution. […] A Labcyte ECHO 550 compound dispenser was used to facilitate compound transfer directly to cells. Cells were equilibrated for 2 hr with energy transfer probes and example compound prior to BRET measurements. […] For target engagement analysis, the energy transfer probes were added to the cells at concentrations optimized for the target in question (AKT E17K). Following compound incubation, NanoBRET NanoGlo Substrate (Promega Cat #Ni57D) and Extracellular Nanoluc Inhibitor (Promega Cat #N235C) was added according to the manufacturer's recommended protocol, and luminescence was measured on Envision Reader (Perkin Elmer) Multimode Luminometer equipped with 450 nm BPfilter (donor) and 600 nm LPfilter (acceptor), using 0.5 s integration time. Milli-BRET units (mBU) are calculated by multiplying the raw BRET values by 1000. Apparent tracer affinity values (EC50) were determined using the sigmoidal dose-response (variable slope). Competitive displacement data were then plotted and data were fit to determine the EC50 value for each example compound.

T1 sequence (P31749 whole entry E17K): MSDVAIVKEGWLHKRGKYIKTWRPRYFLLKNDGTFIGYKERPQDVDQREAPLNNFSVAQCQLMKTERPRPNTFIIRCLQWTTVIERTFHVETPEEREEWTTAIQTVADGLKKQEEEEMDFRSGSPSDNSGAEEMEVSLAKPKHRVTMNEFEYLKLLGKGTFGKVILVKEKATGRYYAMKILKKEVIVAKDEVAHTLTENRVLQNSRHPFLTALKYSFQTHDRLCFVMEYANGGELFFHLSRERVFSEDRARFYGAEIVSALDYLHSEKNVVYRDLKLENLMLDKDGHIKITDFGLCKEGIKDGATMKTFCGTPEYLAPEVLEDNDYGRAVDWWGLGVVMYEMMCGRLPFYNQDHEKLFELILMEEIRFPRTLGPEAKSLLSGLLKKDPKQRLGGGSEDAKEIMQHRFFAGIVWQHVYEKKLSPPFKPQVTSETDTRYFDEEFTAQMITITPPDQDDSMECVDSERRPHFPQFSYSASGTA

Row | SMILES | EC50
1 | CCOc1c(NC2CCN(Cc3ccc(-n4c(-c5cccnc5N)nc5ccc(-c6ccccc6)nc54)cc3)CC2)c(=O)c1=O [Example 12, 3-((1-(4-(2-(2-Aminopyridin-3-yl)-5-phenyl-3H-imidazo[4,5-b]pyridin-3-yl)benzyl)piperidin-4-yl)amino)-4-ethoxycyclobut-3-ene-1,2-dione] | 15 to 60 nM
2 | Nc1ncccc1-c1nc2ccc(-c3ccccc3)nc2n1-c1ccc(CN2CCC(N3CCCOc4c3c(=O)c4=O)CC2)cc1 [Example 84, 6-(1-(4-(2-(2-aminopyridin-3-yl)-5-phenyl-3H-imidazo[4,5-b]pyridin-3-yl)benzyl)piperidin-4-yl)-2-oxa-6-azabicyclo[5.2.0]non-1(7)-ene-8,9-dione] | > 600 nM
3 | Nc1ncccc1-c1nc2ccc(-c3ccccc3)nc2n1-c1ccc(CN2CCN3c4c(c(=O)c4=O)OCC[C@H]3C2)cc1 [Example 89, (S)-7-(4-(2-(2-aminopyridin-3-yl)-5-phenyl-3H-imidazo[4,5-b]pyridin-3-yl)benzyl)-5,5a,6,7,8,9-hexahydro-4H-cyclobuta[b]pyrazino[1,2-d][1,4]oxazepine-1,2-dione] | > 600 nM
4 | CNc1c(NC2CCN(Cc3ccc(-n4c(-c5cccnc5N)nc5ccc(-c6ccccc6)nc54)cc3)CC2)c(=O)c1=O [Example 20, 3-((1-(4-(2-(2-Aminopyridin-3-yl)-5-phenyl-3H-imidazo[4,5-b]pyridin-3-yl)benzyl)piperidin-4-yl)amino)-4-(methylamino)cyclobut-3-ene-1,2-dione] | 60 to 600 nM
5 | COc1c(N2CCN(Cc3ccc(-n4c(-c5cccnc5N)nc5ccc(-c6ccccc6)nc54)cc3)C[C@@H]2C)c(=O)c1=O [Example 36, (S)-3-(4-(4-(2-(2-Aminopyridin-3-yl)-5-phenyl-3H-imidazo[4,5-b]pyridin-3-yl)benzyl)-2-methylpiperazin-1-yl)-4-methoxycyclobut-3-ene-1,2-dione] | 15 to 60 nM
6 | COc1c(N2C3CCC2CN(Cc2ccc(-n4c(-c5cccnc5N)nc5ccc(-c6ccccc6)nc54)cc2)C3)c(=O)c1=O [Example 72, 3-(3-(4-(2-(2-aminopyridin-3-yl)-5-phenyl-3H-imidazo[4,5-b]pyridin-3-yl)benzyl)-3,8-diazabicyclo[3.2.1]octan-8-yl)-4-methoxycyclobut-3-ene-1,2-dione] | 60 to 600 nM
7 | COc1c(N2CCN(Cc3ccc(-n4c(-c5cccnc5N)nc5ccc(-c6ccccc6)nc54)cc3)C[C@H]2CO)c(=O)c1=O [Example 80, (S)-3-(4-(4-(2-(2-aminopyridin-3-yl)-5-phenyl-3H-imidazo[4,5-b]pyridin-3-yl)benzyl)-2-(hydroxymethyl)piperazin-1-yl)-4-methoxycyclobut-3-ene-1,2-dione] | 60 to 600 nM
8 | CCOc1c(N2CCC3(CC2)CN(Cc2ccc(-n4c(-c5cccnc5N)nc5ccc(-c6ccccc6)nc54)cc2)C3)c(=O)c1=O [Example 59, 3-(2-(4-(2-(2-Aminopyridin-3-yl)-5-phenyl-3H-imidazo[4,5-b]pyridin-3-yl)benzyl)-2,7-diazaspiro[3.5]nonan-7-yl)-4-ethoxycyclobut-3-ene-1,2-dione] | 15 to 60 nM
9 | COc1c(NCc2ccc(-n3c(-c4cccnc4N)nc4cccnc43)cc2)c(=O)c1=O [Example 2, 3-((4-(2-(2-Aminopyridin-3-yl)-3H-imidazo[4,5-b]pyridin-3-yl)benzyl)amino)-4-methoxycyclobut-3-ene-1,2-dione] | > 600 nM
10 | COc1c(N2CCC(NCc3ccc(-n4c(-c5cccnc5N)nc5ccc(-c6ccccc6)nc54)cc3)CC2)c(=O)c1=O [Example 77, 3-(4-((4-(2-(2-aminopyridin-3-yl)-5-phenyl-3H-imidazo[4,5-b]pyridin-3-yl)benzyl)amino)piperidin-1-yl)-4-methoxycyclobut-3-ene-1,2-dione] | 15 to 60 nM
11 | COc1c(NC2CCC3(CC2)CCN(Cc2ccc(-n4c(-c5cccnc5N)nc5ccc(-c6ccccc6)nc54)cc2)C3)c(=O)c1=O (centres unmarked) [Example 52, 3-((2-(4-(2-(2-Aminopyridin-3-yl)-5-phenyl-3H-imidazo[4,5-b]pyridin-3-yl)benzyl)-2-azaspiro[4.5]decan-8-yl)amino)-4-methoxycyclobut-3-ene-1,2-dione] | 15 to 60 nM
12 | Nc1ncccc1-c1nc2ccc(-c3ccccc3)nc2n1-c1ccc(CN2CCC(N3CCCOc4c3c(=O)c4=O)C2)cc1 (centres unmarked) [Example 82, 6-(1-(4-(2-(2-aminopyridin-3-yl)-5-phenyl-3H-imidazo[4,5-b]pyridin-3-yl)benzyl)pyrrolidin-3-yl)-2-oxa-6-azabicyclo[5.2.0]non-1(7)-ene-8,9-dione] | 60 to 600 nM
13 | COc1c(N2CCN(Cc3ccc(-n4c(-c5cccnc5N)nc5ccc(-c6ccccc6)nc54)cc3)CC23CC3)c(=O)c1=O [Example 37, 3-(7-(4-(2-(2-Aminopyridin-3-yl)-5-phenyl-3H-imidazo[4,5-b]pyridin-3-yl)benzyl)-4,7-diazaspiro[2.5]octan-4-yl)-4-methoxycyclobut-3-ene-1,2-dione] | 15 to 60 nM

Same assay, conditions: read-out: NanoBRET AKT1E17K EC50; HEK-293 cells transfected with NanoLuc-AKT E17K; competitive displacement of NanoBRET tracer; 2 hr equilibration; 10-point 3-fold dilution

Row | SMILES | EC50
14 | CSc1c(NC2CCN(Cc3ccc(-n4c(-c5cccnc5N)nc5ccc(-c6ccccc6)nc54)cc3)CC2)c(=O)c1=O [Example 45, 3-((1-(4-(2-(2-aminopyridin-3-yl)-5-phenyl-3H-imidazo[4,5-b]pyridin-3-yl)benzyl)piperidin-4-yl)amino)-4-(methylthio)cyclobut-3-ene-1,2-dione] | < 15 nM
15 | COc1c(NC2CC3(CCN(Cc4ccc(-n5c(-c6cccnc6N)nc6ccc(-c7ccccc7)nc65)cc4)CC3)C2)c(=O)c1=O [Example 35, 3-((7-(4-(2-(2-Aminopyridin-3-yl)-5-phenyl-3H-imidazo[4,5-b]pyridin-3-yl)benzyl)-7-azaspiro[3.5]nonan-2-yl)amino)-4-methoxycyclobut-3-ene-1,2-dione] | < 15 nM
16 | COc1c(NC2CCN(Cc3ccc(-n4c(-c5cccnc5N)nc5cc(-c6ccccc6)cnc54)cc3)CC2)c(=O)c1=O [Example 10, 3-((1-(4-(2-(2-Aminopyridin-3-yl)-6-phenyl-3H-imidazo[4,5-b]pyridin-3-yl)benzyl)piperidin-4-yl)amino)-4-methoxycyclobut-3-ene-1,2-dione] | < 15 nM
17 | COc1c(N2CC[C@]3(CCN(Cc4ccc(-n5c(-c6cccnc6N)nc6ccc(-c7ccccc7)nc65)cc4)C3)C2)c(=O)c1=O [Example 66, (S)-3-(7-(4-(2-(2-aminopyridin-3-yl)-5-phenyl-3H-imidazo[4,5-b]pyridin-3-yl)benzyl)-2,7-diazaspiro[4.4]nonan-2-yl)-4-methoxycyclobut-3-ene-1,2-dione] | < 15 nM
18 | COc1c(N2CC3CCC2CN3Cc2ccc(-n3c(-c4cccnc4N)nc4ccc(-c5ccccc5)nc43)cc2)c(=O)c1=O (centres unmarked) [Example 63, 3-(5-(4-(2-(2-aminopyridin-3-yl)-5-phenyl-3H-imidazo[4,5-b]pyridin-3-yl)benzyl)-2,5-diazabicyclo[2.2.2]octan-2-yl)-4-methoxycyclobut-3-ene-1,2-dione] | < 15 nM
19 | CCSc1c(NC2CCN(Cc3ccc(-n4c(-c5cccnc5N)nc5ccc(-c6ccccc6)nc54)cc3)CC2)c(=O)c1=O [Example 39, 3-((1-(4-(2-(2-Aminopyridin-3-yl)-5-phenyl-3H-imidazo[4,5-b]pyridin-3-yl)benzyl)piperidin-4-yl)amino)-4-(ethylthio)cyclobut-3-ene-1,2-dione] | < 15 nM
20 | COc1c(N2CCC(OCc3ccc(-n4c(-c5cccnc5N)nc5ccc(-c6ccccc6)nc54)cc3)CC2)c(=O)c1=O [Example 78, 3-(4-((4-(2-(2-aminopyridin-3-yl)-5-phenyl-3H-imidazo[4,5-b]pyridin-3-yl)benzyl)oxy)piperidin-1-yl)-4-methoxycyclobut-3-ene-1,2-dione] | < 15 nM
21 | COc1c(NC2CCCN(Cc3ccc(-n4c(-c5cccnc5N)nc5ccc(-c6ccccc6)nc54)cc3)CC2)c(=O)c1=O (centres unmarked) [Example 73, 3-((1-(4-(2-(2-aminopyridin-3-yl)-5-phenyl-3H-imidazo[4,5-b]pyridin-3-yl)benzyl)azepan-4-yl)amino)-4-methoxycyclobut-3-ene-1,2-dione] | < 15 nM
22 | CCN(c1c(SC)c(=O)c1=O)C1CCN(Cc2ccc(-n3c(-c4cccnc4N)nc4ccc(-c5ccccc5)nc43)cc2)CC1 [Example 92, 3-((1-(4-(2-(2-aminopyridin-3-yl)-5-phenyl-3H-imidazo[4,5-b]pyridin-3-yl)benzyl)piperidin-4-yl)(ethyl)amino)-4-(methylthio)cyclobut-3-ene-1,2-dione] | < 15 nM
23 | COc1c(N2CC3(CCN(Cc4ccc(-n5c(-c6cccnc6N)nc6ccc(-c7ccccc7)nc65)cc4)C3)C2)c(=O)c1=O [Example 55, 3-(6-(4-(2-(2-Aminopyridin-3-yl)-5-phenyl-3H-imidazo[4,5-b]pyridin-3-yl)benzyl)-2,6-diazaspiro[3.4]octan-2-yl)-4-methoxycyclobut-3-ene-1,2-dione] | < 15 nM
